The target in this assay is T1, human enzyme NAMPT (full length) (Homo sapiens, UniProt P43490).
T1 construct: human enzyme NAMPT (full length)
The assay is described as follows: NMN fluorescence biochemical assay (stimulation of NMN synthesis by NAMPT). The conditions noted are these: for EC50: concentration giving half-maximal activation, read-out: Enzymatic EC50; for Enzymatic Emax: fold change of maximal activation compared to DMSO. A digest of the protocol: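 Full-length human NAMPT (100 nM) was preincubated 15 min at 37 °C with compound in 50 mM Tris-HCl pH 7.5, 10 mM MgCl2, 2 mM DTT, then reacted 1 h at 37 °C with 50 μM NAM, 100 μM PRPP, 4 mM ATP (stated solution concentrations). NMN was derivatised with acetophenone/KOH then formic acid and read at Ex/Em 382/445 nm; EC50 and Emax (fold over DMSO) reported.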

Where [1] appears, read: NMN synthesis by purified human NAMPT (100 nM).
Where [2] appears, read: NMN fluorescence assay, purified human NAMPT 100 nM.

Where two headings read alike, the source gives them in different places.

T1 sequence (P43490 whole entry): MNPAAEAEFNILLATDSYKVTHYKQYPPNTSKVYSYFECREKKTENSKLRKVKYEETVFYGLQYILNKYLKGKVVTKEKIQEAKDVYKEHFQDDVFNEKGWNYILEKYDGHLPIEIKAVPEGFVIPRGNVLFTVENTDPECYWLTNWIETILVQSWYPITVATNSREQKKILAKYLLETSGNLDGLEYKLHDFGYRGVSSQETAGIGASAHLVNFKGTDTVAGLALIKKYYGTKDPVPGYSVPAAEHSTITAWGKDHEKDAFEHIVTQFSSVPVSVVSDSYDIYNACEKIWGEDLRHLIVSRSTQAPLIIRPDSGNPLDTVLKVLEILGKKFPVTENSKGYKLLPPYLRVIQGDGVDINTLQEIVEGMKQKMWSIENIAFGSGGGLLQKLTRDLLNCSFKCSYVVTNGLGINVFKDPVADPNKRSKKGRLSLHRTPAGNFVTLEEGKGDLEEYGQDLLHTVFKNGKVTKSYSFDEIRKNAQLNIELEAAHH

Turning to `O=C1c2ccccc2C(C(F)(F)c2ccccc2)N1Cc1ccc2[nH]c(=O)oc2c1` (centres unmarked) [Compound 306, 6-((1-(difluoro(phenyl)methyl)-3-oxoisoindolin-2-yl)methyl)benzo[d]oxazol-2(3H)-one], the “Enzymatic Emax” value was “C (2≥C)”. Moreover, the concentration for a half-maximal effect (EC50) under setting [1] was at least 5 µM. `O=C1c2ccccc2C(Cc2ncccc2Br)N1Cc1ccc2c(c1)nnn2O` (centres unmarked) [Compound 288, 3-((3-bromopyridin-2-yl)methyl)-2-((1-hydroxy-1H-benzo[d][1,2,3]triazol-5-yl)methyl) isoindolin-1-one]: the “Enzymatic Emax” value was “C (2≥C)”. Moreover, the EC50 under setting [1] is at least 5 µM. As for `O=C1c2ccccc2C(Cc2ccc(Br)cn2)N1Cc1ccc2[nH]c(=O)oc2c1` (centres unmarked) [Compound 262, 6-((1-((5-bromopyridin-2-yl)methyl)-3-oxoisoindolin-2-yl)methyl)benzo[d]oxazol-2(3H)-one], the “Enzymatic Emax” value was “A (A>3)”. Further, the EC50 under setting [1] was in the range of 0.5 to 5 µM. Regarding `CNC(=O)c1ccc2c(c1)C(C)N(Cc1ccc3[nH]c(=O)oc3c1)C2=O` (centres unmarked) [Compound 92, N,3-dimethyl-1-oxo-2-((2-oxo-2,3-dihydrobenzo[d]oxazol-6-yl)methyl)isoindoline-5-carboxamide], the “Enzymatic Emax” value is on record as “B (3≥B>2)”. Further, the EC50 under setting [1] is at least 5 µM. `O=C1c2ccccc2C(Cc2cc(Cl)ccn2)N1Cc1ccc2[nH]c(=O)oc2c1` (centres unmarked) [Compound 220, 6-((1-((4-chloropyridin-2-yl)methyl)-3-oxoisoindolin-2-yl)methyl)benzo[d]oxazol-2(3H)-one]: the “Enzymatic Emax” value is on record as “B (3≥B>2)”. The EC50 under setting [1] lay within 0.5 to 5 µM. With `O=C1c2ccccc2C(Cc2nn(C(CO)CO)cc2Cl)N1Cc1ccc2[nH]nnc2c1` (centres unmarked) [Compound 363, 2-((1H-benzo[d][1,2,3]triazol-5-yl)methyl)-3-((4-chloro-1-(1,3-dihydroxypropan-2-yl)-1H-pyrazol-3-yl)methyl)isoindolin-1-one], the “Enzymatic Emax” value is reported as “B (3≥B>2)”. Besides, under setting [2], the EC50 lay within 0.5 to 5 µM. Regarding `Cn1ncc(Cl)c1CC1c2cccc(Br)c2C(=O)N1CC1CC2(CNC(=O)O2)C1` (centres unmarked) [Compound 434, 2-((4-bromo-1-((4-chloro-1-methyl-1H-pyrazol-5-yl)methyl)-3-oxoisoindolin-2-yl)methyl)-5-oxa-7-azaspiro[3.4]octan-6-one], the “Enzymatic Emax” value is on record as “B (3≥B>2)”. Besides, the EC50 under setting [2] was in the range of 0.5 to 5 µM. Take `O=c1[nH]n(Cc2ccc(O)cc2)c2ccccc12` [Compound 13, 1-(4-hydroxybenzyl)-1,2-dihydro-3H-indazol-3-one]: the “Enzymatic Emax” value is “B (3≥B>2)”. The EC50 under setting [1] was at least 5 µM. Take `Cn1ncc(Cl)c1CC1c2ccccc2C(=O)N1CCc1ccc(=O)[nH]c1` (centres unmarked) [Compound 636, 3-((4-chloro-1-methyl-1H-pyrazol-5-yl)methyl)-2-(2-(6-oxo-1,6-dihydropyridin-3-yl)ethyl)isoindolin-1-one]: the “Enzymatic Emax” value is on record as “C (2≥C)”. Moreover, the EC50 under setting [2] is at least 5 µM. For `O=C1c2ccccc2CCN1Cc1ccc2[nH]c(=O)oc2c1` [Compound 8, 6-((1-oxo-3,4-dihydroisoquinolin-2(1H)-yl)methyl)benzo[d]oxazol-2(3H)-one], the “Enzymatic Emax” value is recorded as “B (3≥B>2)”. For the same molecule, the EC50 under setting [1] is at least 5 µM.

For `CCn1c2ccccc2c(=O)n1Cc1ccc(O)cc1` [Compound 24, 1-ethyl-2-(4-hydroxybenzyl)-1,2-dihydro-3H-indazol-3-one], the “Enzymatic Emax” value was “A (A>3)”. Under setting [1], the EC50 was at least 5 µM.

Consider `NC(=O)c1cccc(CC2c3ccccc3C(=O)N2Cc2ccc3[nH]c(=O)oc3c2)c1` (centres unmarked) [Compound 264, 3-((3-oxo-2-((2-oxo-2,3-dihydrobenzo[d]oxazol-6-yl)methyl)isoindolin-1-yl)methyl) benzamide], for which the “Enzymatic Emax” value is given as “B (3≥B>2)”. Moreover, under setting [1], the EC50 is 0.5 to 5 µM. On to `O=C1c2ccccc2C(Cc2ncccc2Br)N1[C@H]1C[C@H](c2c[nH]nn2)C1` (some centres unmarked) [Compound 403, 2-((1r,3r)-3-(1H-1,2,3-triazol-4-yl)cyclobutyl)-3-((3-bromopyridin-2-yl)methyl)isoindolin-1-one], for which the “Enzymatic Emax” value was “C (2≥C)”. For the same molecule, the EC50 under setting [2] was at least 5 µM. With `Cc1cnn(C)c1CC1c2ccccc2C(=O)N1Cc1ccc2[nH]nnc2c1` (centres unmarked) [Compound 365, 2-((1H-benzo[d][1,2,3]triazol-5-yl)methyl)-3-((1,4-dimethyl-1H-pyrazol-5-yl)methyl)isoindolin-1-one], the “Enzymatic Emax” value was “B (3≥B>2)”. Besides, under setting [2], the concentration for a half-maximal effect (EC50) lay in the range of 0.5 to 5 µM. As to `O=C1c2sc(Br)nc2CN1Cc1ccc(O)cc1` [Compound 447, 2-bromo-5-(4-hydroxybenzyl)-4,5-dihydro-6H-pyrrolo[3,4-d]thiazol-6-one], the “Enzymatic Emax” value is reported as “B (3≥B>2)”. In addition, under setting [2], the EC50 was at least 5 µM.

As to `COC1CN(Cc2ccc3c(c2)[C@H](C)N(Cc2ccc4[nH]c(=O)oc4c2)C3=O)C1` (single isomer, unassigned) [Compound 185], the “Enzymatic Emax” value is reported as “B (3≥B>2)”. Under setting [1], the EC50 was at least 5 µM. As for `COc1ccc2c(c1)C(=O)N(Cc1ccc(O)cc1)C2=O` [Compound 30, 2-(4-hydroxybenzyl)-5-methoxyisoindoline-1,3-dione], the “Enzymatic Emax” value was “A (A>3)”. The EC50 under setting [1] was 0.5 to 5 µM. `Cn1ncc(Cl)c1CC1c2ccccc2C(=O)N1CC1CC2(CN=C(NC#N)O2)C1` (centres unmarked) [Compound 520, N-(2-((1-((4-chloro-1-methyl-1H-pyrazol-5-yl)methyl)-3-oxoisoindolin-2-yl)methyl)-5-oxa-7-azaspiro[3.4]oct-6-en-6-yl)cyanamide]: the “Enzymatic Emax” value was “C (2≥C)”. Under setting [2], the EC50 is at least 5 µM. With `O=C1COc2ccccc2N1Cc1ccc(O)cc1` [Compound 6, 4-(4-hydroxybenzyl)-2H-benzo[b][1,4]oxazin-3(4H)-one], the “Enzymatic Emax” value is “B (3≥B>2)”. Also, the EC50 under setting [1] was at least 5 µM. In the case of `Cc1cc(F)c2c(c1)C(Cc1c(Cl)cnn1C)N(CC1CC3(CNC(=O)O3)C1)C2=O` (centres unmarked) [Compound 506, 2-((1-((4-chloro-1-methyl-1H-pyrazol-5-yl)methyl)-4-fluoro-6-methyl-3-oxoisoindolin-2-yl)methyl)-5-oxa-7-azaspiro[3.4]octan-6-one], the “Enzymatic Emax” value is on record as “B (3≥B>2)”. Besides, the concentration giving a half-maximal response (EC50) under setting [2] is below 0.5 µM. Turning to `CN(C)c1ccc2c(c1)C(=O)N(Cc1ccc(O)cc1)C2` [Compound 305, 6-(dimethylamino)-2-(4-hydroxybenzyl) isoindolin-1-one], the “Enzymatic Emax” value is recorded as “C (2≥C)”. Also, under setting [1], the 50% effective concentration (EC50) was at least 5 µM.

Regarding `Cc1onc(C#N)c1C(O)C1c2ccccc2C(=O)N1Cc1ccc2[nH]nnc2c1` (centres unmarked) [Compound 374, 4-((2-((1H-benzo[d][1,2,3]triazol-5-yl)methyl)-3-oxoisoindolin-1-yl)(hydroxy)methyl)-5-methylisoxazole-3-carbonitrile], the “Enzymatic Emax” value was “B (3≥B>2)”. Moreover, the EC50 under setting [2] is 0.5 to 5 µM.

In the case of `CC(=O)c1ccc(CN2C(=O)c3ccccc3C2Cc2c(Cl)cnn2C)cc1` (centres unmarked) [Compound 584, 2-(4-acetylbenzyl)-3-((4-chloro-1-methyl-1H-pyrazol-5-yl)methyl)isoindolin-1-one], the “Enzymatic Emax” value was “B (3≥B>2)”. In addition, the EC50 under setting [2] lay within 0.5 to 5 µM. Taken in the same sequence, the figures for `Cn1ncc(Cl)c1CC1c2ccccc2C(=O)N1CC1CC(=O)C1` (centres unmarked) [Compound 556, 3-((4-chloro-1-methyl-1H-pyrazol-5-yl)methyl)-2-((3-oxocyclobutyl)methyl)isoindolin-1-one] were “B (3≥B>2)” and at least 5 µM.

Regarding `Cn1cc(Cl)c(CC2c3ccccc3C(=O)N2Cc2ccc3[nH]nnc3c2)n1` (centres unmarked) [Compound 250, 2-((1H-benzo[d][1,2,3]triazol-5-yl)methyl)-3-((4-chloro-1-methyl-1H-pyrazol-3-yl)methyl) isoindolin-1-one], the “Enzymatic Emax” value was “B (3≥B>2)”. Also, the EC50 under setting [1] was below 0.5 µM.

As for `O=C1c2ccccc2C(Cc2ncccc2Br)N1Cc1ccn2c(CO)nnc2c1` (centres unmarked) [Compound 323, 3-((3-bromopyridin-2-yl)methyl)-2-((3-(hydroxymethyl)-[1,2,4]triazolo[4,3-a]pyridin-7-yl)methyl)isoindolin-1-one], the “Enzymatic Emax” value is on record as “B (3≥B>2)”. Under setting [2], the EC50 was at least 5 µM. With `CC1c2c(cccc2C2CC2)C(=O)N1Cc1ccc2[nH]c(=O)oc2c1` (centres unmarked) [Compound 245, 6-((4-cyclopropyl-3-methyl-1-oxoisoindolin-2-yl)methyl)benzo[d]oxazol-2(3H)-one], the “Enzymatic Emax” value is listed as “B (3≥B>2)”. Besides, under setting [1], the EC50 is at least 5 µM.

With `Cn1ncc(Cl)c1CC1c2ccccc2C(=O)N1CC#Cc1c[nH]cn1` (centres unmarked) [Compound 452, 2-(3-(1H-imidazol-4-yl)prop-2-yn-1-yl)-3-((4-chloro-1-methyl-1H-pyrazol-5-yl)methyl)insoindolin-1-one], the “Enzymatic Emax” value is “C (2≥C)”. The EC50 under setting [2] is 0.5 to 5 µM. As to `Cn1ncc(Cl)c1CC1c2ccccc2C(=O)N1Cc1ccc2[nH]c(=S)oc2c1` (centres unmarked) [Compound 626, 3-((4-chloro-1-methyl-1H-pyrazol-5-yl)methyl)-2-((2-thioxo-2,3-dihydrobenzo[d]oxazol-6-yl)methyl)isoindolin-1-one], the EC50 under setting [2] was at least 5 µM. As for `N#Cc1nccc(Cl)c1CC1c2cccc(F)c2C(=O)N1Cc1ccc2[nH]c(=O)oc2c1` (centres unmarked) [Compound 286, 4-chloro-3-((4-fluoro-3-oxo-2-((2-oxo-2,3-dihydrobenzo[d]oxazol-6-yl)methyl)isoindolin-1-yl)methyl)picolinonitrile], the “Enzymatic Emax” value was “B (3≥B>2)”. Also, the EC50 under setting [1] is below 0.5 µM.

Values taken from patent US20260078130A1, “NAMPT MODULATORS, PREPARATIONS, AND USES THEREOF” (SIRONAX LTD., priority 2022, published 2026).
